Reference: patent publication US9333280B2, “Stabilized enzyme compositions” (Teleflex Medical Incorporated, priority 2009, dated 2016)

System: Staphylococcus aureus ATCC 33591
Experiment: Adherence of bacteria on catheter segments
Format: cell-based
Settings: against the tested organisms
Experimental: In addition to fibrinolytic activity, antimicrobial activity of the 1% LMW-DexS (8 kDa) treated catheters was evaluated. In this test, adherence of gram positive bacteria Staphylococcus aureus ATCC 33591, on the catheter segments having immobilized enzyme uPA stabilized with 1% LMW-DexS (8 kDa), along with the antimicrobial agents such as gentian violet (0.6%) and chlorhexidine dodecanoate was compared to similarly treated catheter segments but without the LMW-DexS (8 kDa) stabilized enzyme.

SMILES	antimicrobial activity after attachment of LMW-DexS (8 kDa) stabilized urokinase
CN(C)c1ccc(C(=C2C=CC(=[N+](C)C)C=C2)c2ccc(N(C)C)cc2)cc1 [gentian violet]	not compromised
CCCCCCCCCCCC(=O)O.NC(=NCCCCCCN=C(N)N=C(N)Nc1ccc(Cl)cc1)N=C(N)Nc1ccc(Cl)cc1 [chlorhexidine dodecanoate]	not compromised
